# Assays:
# [1] = tested on: Asian Citrus Psyllid (ACP, Diaphorina citri); settings: field trials, literature [7-9]; cited from earlier work
# [2] = tested on: Asian Citrus Psyllid (ACP, Diaphorina citri); settings: chemical repellants, literature [11-13]; cited from earlier work
# Vinca sp = experiment: Phytotoxicity (plant tissue injury) testing on Vinca sp.; format: in vivo; design: key: −: No plant tissue damage; +: Minimal; ++: moderate; +++: severe plant tissue damage
# Procedure: FIGS. 2A to 2C illustrate phytotoxicity (plant tissue injury) results. FIG. 2A illustrates untreated, FIG. 2B illustrates OSCF nanoparticle, and FIG. 2C illustrates OSCF nanogel film materials, sprayed on Vinca. sp. Under green-house conditions, approximately 5 mL of synthesized formula was sprayed on plants at 7:30 AM on the test day. After 72 hrs, all treatments were non-phytotoxic (−) to plants.
# FIG. 1 illustrates digital photographs of some representative citrus leaf surfaces before and after rigorous spray washing with water (simulating over 6 inches of rainfall). Phytotoxicity studies were carried out using Vinca sp. (an ornamental plant, highly susceptible to phytotoxicity; purchased from Home Depot).
# (§1) Tables 2 and 3, Example 2, illustrate phytotoxicity testing of embodiments of the present disclosure.
# Citrus (Persian Lime) = experiment: Phytotoxicity testing on Citrus (Persian Lime); format: in vivo; design: key: −: No plant tissue damage; +: Minimal; ++: moderate; +++: severe plant tissue damage
# Text: as §1
# Tomato sp = experiment: Phytotoxicity testing on Tomato sp; format: in vivo; design: key: −: No plant tissue damage; +: Minimal; ++: moderate; +++: severe plant tissue damage
# Text: as §1
compound,measurement,setting,value
CCOP(=S)(OCC)Oc1nc(Cl)c(Cl)cc1Cl [chlorpyrifos],Controlling ACP populations,[1],effective in controlling ACP populations
O=[N+]([O-])NC1=NCCN1Cc1ccc(Cl)nc1 [imidacloprid],Controlling ACP populations,[1],effective in controlling ACP populations
"CSSC [dimethyldisulfide (DMDS), dimethyldisulfide]",ACP repellant properties,[2],moderate ACP repellant properties
CC1(C)C(C(=O)OC(C#N)c2cccc(Oc3ccccc3)c2)C1(C)C (stereo not drawn) [fenpropathrin],Controlling ACP populations,[1],effective in controlling ACP populations
CN1COCN(Cc2cnc(Cl)s2)/C1=N\[N+](=O)[O-] [thiamethoxam],Controlling ACP populations,[1],effective in controlling ACP populations
CN/C(=N\[N+](=O)[O-])NCc1cnc(Cl)s1 [clothianidin],Controlling ACP populations,[1],effective in controlling ACP populations
O=S(=O)([O-])[O-].[Cu+2] [CuSO4],"Phytotoxicity, plant tissue damage","Vinca sp; 24 hr, Table 2",+
same,"Phytotoxicity, plant tissue damage","Vinca sp; 24 hr, Table 3",+
same,"Phytotoxicity, plant tissue damage","Vinca sp; 48 hr, Table 2",++
same,"Phytotoxicity, plant tissue damage","Vinca sp; 48 hr, Table 3",++
same,"Phytotoxicity, plant tissue damage","Vinca sp; 72 hr, Table 2",+++
same,"Phytotoxicity, plant tissue damage","Vinca sp; 72 hr, Table 3",+++
same,"Phytotoxicity, plant tissue damage",Citrus (Persian Lime); 24 hr,+
same,"Phytotoxicity, plant tissue damage",Citrus (Persian Lime); 48 hr,++
same,"Phytotoxicity, plant tissue damage",Citrus (Persian Lime); 72 hr,+++
same,"Phytotoxicity, plant tissue damage",Tomato sp; 24 hr,+
same,"Phytotoxicity, plant tissue damage",Tomato sp; 48 hr,++
same,"Phytotoxicity, plant tissue damage",Tomato sp; 72 hr,+++

# Source: patent US20150342194A1, “NON-PHYTOTOXIC COMPOSITE POLYMER FILM BARRIER AS A REPELLENT FOR CONTROLLING INFECTION” (priority 2014, published 2015)
